The source of these data is patent publication US20220008372A1, “BACLOFEN FOR USE IN THE TOPICAL TREATMENT OF LOCALIZED MUSCULOSKELETAL PAIN” (ASSISTANCE PUBLIQUE - HOPITAUX DE PARIS, priority 2018, published 2022).

The structures appear in SMILES notation.

The subject of the first experiment is patients with localized musculoskeletal pain. In words: Example 1: topical Baclofen cream in 19 patients, pain intensity on Visual Analogue Scale. Type of experiment: in vivo, human. The note with it: patient, facioscapulohumeral muscular dystrophy, before applying topical baclofen. How it is done: The cream was prepared with Baclofen powder mixed with a Pentravan® Base (Fagron) at a final concentration of 10% w/w.
The intensity of pain was rated using a Visual Analogue Scale (VAS) from 1 to 10.
Turning to `CC(C(=O)O)c1cccc(C(=O)c2ccccc2)c1` (stereo not drawn) [ketoprofene], the “efficiency of earlier pain treatment” value is reported as “poor efficiency”. For `CC(=O)Nc1ccc(O)cc1` [paracetamol], the “efficiency of earlier pain treatment” value is reported as “poor efficiency”. Same read-out and setting: in the case of `COc1cccc(C2(O)CCCCC2CN(C)C)c1` (stereo not drawn) [tramadol] it was “poor efficiency”; in that of `CN(C)CCC=C1c2ccccc2CCc2ccccc21` [amitriptyline], “poor efficiency”; in that of `NCC1(CC(=O)O)CCCCC1` [gabapentine], “poor efficiency”.

For another experiment the test system is unchanged. In words: Example III: case reports of 3 patients applying topical baclofen. The format is in vivo, human. To be noted: human, in vivo.
For `COc1c(O[C@@H]2O[C@H](CO)[C@@H](O)[C@H](O)[C@H]2O)cc2c(c1OC)-c1ccc(SC)c(=O)cc1[C@@H](NC(C)=O)CC2` [Thiocolchicoside], the “efficiency of earlier pain treatment” value is “poor efficiency”. Regarding `NCC(CC(=O)O)c1ccc(Cl)cc1` (stereo not drawn) [baclofen per os, β-(4-chlorophenyl)-γ-aminobutyric acid], the “efficiency of earlier pain treatment” value is “poor efficiency”.

Staying with this experiment, now noted: patient, Facioscapulohumeral muscular dystrophy, before topical baclofen.
On to `C=CC1CN2CCC1CC2C(O)c1ccnc2ccc(OC)cc12.O=C(O)c1ccccc1` (stereo not drawn) [Quinine benzoate], for which the “efficiency of earlier pain treatment” value is listed as “poor efficiency”. On to `CN(C)CCC=C1c2ccccc2CCc2ccccc21` [amitriptyline], for which the “efficiency of earlier pain treatment” value is on record as “poor efficiency”.
